Assay results from patent US20260218210A1, “ENGINEERED BACTERIA FOR CELLULAR BARRIER M[…] PROTECTION” (The Trustees of Columbia University in the City of New York, priority 2023, published 2026).

Key:
[1] = test system: acute DSS colitis in NFD/FDD fed mice; assay: Acute DSS colitis in mice fed fiber-deficient (no fiber) diet; format: in vivo, mouse; conditions: five days DSS colitis
[2] = test system: colon tissue gene expression; assay: RNA-sequencing of colon tissue of FDD mice during DSS colitis; format: in vivo, mouse
Experimental: (§1) DSS colitis and GLP-1 modulating therapies For induction of acute DSS colitis, between 0.5% to 6% w/v dextran sulfate sodium (DSS, colitis grade, MPbio) was supplemented in drinking water for five days. Drinking water was furthermore enriched with 2% w/v sucrose for all groups. Mice were switched to FDD seven days prior to DSS supplementation or maintained on ND during course of experiment. As indicated, FDD mice were i.p. injected with 0.1 μg/g GLP-1 receptor agonist (Exendin-4, AS-24463, AnaSpec) or 0.4 μg/g GLP-1 receptor antagonist (Exendin-9-39, AS-24467, AnaSpec) in 100 μl PBS every day starting one day before start of DSS. Additionally, mice were orally gavaged with either 10^10 CFU E. coli Nissle (EcN) or 10^10 CFU E. coli Nissle-HldSE (EcN-HldSE) every day starting one day prior to DSS supplementation. Of note, tissue samples for RNA-sequencing analysis are derived from mice either gavaged with EcN (control and GLP-1 receptor agonist groups) or EcN-HldSE (EcN-HldSE and GLP-1 receptor antagonist groups). Mice were monitored daily for changes in body weight. After five days, mice were euthanized for blood and tissue sampling.
RNA colonic transcriptomics For mRNA sequencing using the Illumina platform, total RNA was first extracted from tissue using TRItol reagent. The extracted RNA was quantified using Bioanalyzer to ensure high-quality RNA (RIN>7) for further library preparation. Poly-A mRNA was isolated using the Dynabeads™ mRNA Purification Kit (Thermo Fisher, #61006), followed by fragmentation with the NEBNext Ultra II RNA Library Prep Kit (New England Biolabs, #E7770) at 94° C. for 8 minutes. First-strand cDNA synthesis was performed using SuperScript IV Reverse Transcriptase (Thermo Fisher, #18090050), followed by second-strand cDNA synthesis. […] Libraries were validated for quality and size distribution using 2% agarose gel and enriched using size selection beads to eliminate any cDNA below 350 bp, and quantified using a Qubit 4 Fluorometer (Thermo Fisher, #Q33226). Sequencing was performed on an Illumina NextSeq550 platform using paired-end 150 bp reads high output.
Post-sequencing, FastQC (v0.11.9) was employed to assess raw read quality, evaluating metrics such as per-base sequence quality (Q30 or higher), GC content, and potential adapter contamination. […] Reads alignment and transcripts quantification of gene expression were done using Kallisto (v0.46.1) and DESeq2 (v1.30.1) was then used for differential expression analysis, incorporating normalization and variance-stabilizing transformation to account for differences in sequencing depth and library size. […]

[3] = test system: acute DSS colitis in NFD/FDD fed mice; assay: Acute DSS colitis in mice fed fiber-deficient (no fiber) diet; format: in vivo, mouse
Experimental: (§2) Mice and diets C57BL/6J and Il10^−/− mice were purchased from Jackson Laboratory. Animals were purchased from maximum barrier rooms and maintained in high barrier animal rooms at Columbia University. All mice were maintained under specific-pathogen-free (SPF) conditions for the duration of the experiments. All experiments were performed under IACUC approved guidelines. To control for microbiota and cage effects, mice were shuffled between cages before the start of each experiment and randomly assigned to each group. All experiments were performed with gender and age (8-12 weeks at start of experiment) matched mice. Animals were maintained on normal diet (PicoLab Rodent Diet 20, 5053) until start of experiments and then switched to fiber-deficient diet (Teklad Custom Diet, TD.00278) or continued on ND as indicated. ND contained 21% protein, 53.4% carbohydrates, 5% fat, 5% fiber and 4 kcal/g. FDD contained 19.3% protein, 64.8% carbohydrates, 5.1% fat and no fiber, overall the diet provides 3.9 kcal/g.
as §1
Histological analyses The colonic tissue was carefully rinsed with PBS to remove fecal matter. Colon and small intestine was fixated in 10% formalin for >24 hours and embedded in paraffin. 5 μm section were stained with H&E, Alcian Blue and Immunohistochemistry (IHC) staining for GLP-1 (GLP-1 polyclonal antibody, PA5-79303, Invitrogen). A pathologist assessed and scored H&E stained slides for colitis grading.
Plating for liver colony forming units (CFU) For bacterial extraction from liver tissue, livers were first weighed and then transferred into sterile stainless steel microvials (Biospec #2007) containing two stainless steel beads (6.35 mm, Biospec #11079635SS) and capped with silicone rubber caps (Biospec #2008). The vials were subsequently filled with 500 μL of sterile phosphate-buffered saline (PBS), and the tubes were placed on ice to prevent bacterial growth. The samples were homogenized using a Mini-BeadBeater-16 (BioSpec) with three cycles of 30 seconds at 4° C. After extraction, the samples were diluted as needed in PBS, and 100 μL of the diluted solution was plated onto Luria-Bertani (LB) agar plates (2% agar). The plates were thoroughly dried and incubated at 37° C. overnight. Colony-forming units (CFU) were counted the following day and normalized to tissue weight.
Plasma analyses GLP-1 and pro-inflammatory cytokine measurements were performed from plasma samples. After euthanasians, blood was drawn from mice with needles coated with EDTA to stop coagulation. Blood samples were pelleted by centrifugation for 10 min at 15000 rpm at 4° C. Supernatant was transferred to a new tube, snap frozen and stored at −80° C. GLP-1 ELISA (GLP-1 Multispecies ELISA kit, BMS2194, Invitrogen) and LEGENDplex Mouse Inflammation Panel (740446, BioLegend) were performed according to manufacturer protocol. […]

[4] = test system: acute DSS colitis in NC/ND fed mice; assay: Acute DSS colitis in mice fed normal chow / normal diet; format: in vivo, mouse; conditions: five days DSS colitis
Experimental: as §2, §1
Plating for liver colony forming units (CFU) For bacterial extraction from liver tissue, livers were first weighed and then transferred into sterile stainless steel microvials (Biospec #2007) containing two stainless steel beads (6.35 mm, Biospec #11079635SS) and capped with silicone rubber caps (Biospec #2008). […] Colony-forming units (CFU) were counted the following day and normalized to tissue weight.
Here, mice with low fiber diets were treated with DSS for […] with or without the engineered Nissle HldSE (FIG. 3A) Treatment with Nissle HldSE improved barrier function measured based on infiltrating gut bacteria in liver (Liver CFU; FIG. 3C). […]

GLP-1 release = conditions: cited from earlier work
IEL γδ (gd) T cells = assay: IEL γδ T cell IL-17A production and γδ T cell depletion in DSS colitis of NFD fed mice; format: in vivo, mouse
Source text: EcN or EcN HldSE (5×10^9 CFU/mouse) was gavaged daily starting three days prior to DSS administration. gd T cells were depleted by administration of neutralizing antibodies i.p. every other day. […] EcN or EcN HldSE (5×10^9 CFU/mouse) was gavaged daily starting three days prior to DSS administration. gd T cells were depleted by administration of neutralizing antibodies i.p. every other day. N=3-5 mice/group, one experiment. […] EcN or EcN HldSE (5×10^9 CFU/mouse) was gavaged daily starting three days prior to DSS administration. gd T cells were depleted by administration of neutralizing antibodies i.p. every other day. N=3-5 mice/group, one experiment.

[5] = FDD mice, five days DSS colitis, agonist 0.1 μg/g i.p. daily or 10^10 CFU gavage daily
[6] = FDD mice, DSS colitis, EcN-HldSE treatment plus antagonist injection

## Exendin-4 [GLP-1 receptor agonist]
[1]
  CFU levels in the liver (bacteria dissemination into the liver): significantly reduced
[2]; colon of FDD mice during colitis
  genes linked to ribosome biogenesis, cell cycle and DNA replication and inflammatory signaling: downregulated
[2]; colon of FDD mice, DSS colitis, versus EcN control
  DEGs commonly upregulated in the colon with EcN-HldSE and the GLP-1 receptor agonist: ~50%
[2]; colon of FDD mice, acute colitis, DSS colitis time-series dataset
  genes associated with homeostasis and recovery phases (GSEA): enrichment
[2]; over-representation analysis, colon of FDD mice during DSS colitis
  genes involved in lipid metabolism, tight junctions and epithelial structure maintenance: upregulation
[3]; FDD mice during DSS colitis
  L-cell numbers (GLP-1 staining) in colon: increase
  goblet cell numbers (Alcian Blue staining) in colon: remained unchanged
[3]; FDD mice, DSS colitis
  histological colitis score: improved
[3]; FDD mice, DSS colitis, figure headlines FIGS. 10, 11
  colitis outcome in dysbiotic mice: ameliorate
[3]; FDD mice, five days DSS colitis, plasma
  circulating (pro-)inflammatory cytokines (TNF-α, IL-1α, IL-6, MCP-1): lower
[3]; [5]
  colon shortening: less
  weight loss: reduced

## Exendin-9-39 [GLP-1 receptor antagonist]
[4]
  bacterial dissemination into the liver: higher
  colon shortening: greater
  disease severity: exacerbated
  weight loss: more
[3]; FDD mice, DSS colitis, EcN-HldSE treatment plus antagonist 0.4 μg/g i.p. daily
  protective effects of the engineered probiotic: abolished
[3]; [6]
  colon length: shorter
  level of circulating pro-inflammatory cytokines: elevated
  number of bacteria in the liver: drastically increased
  weight loss: severe

## MAADIISTIGDLVKWIIDTVNKFKK [HldSE]
GLP-1 release
  GLP-1 release in vitro: induce
IEL γδ (gd) T cells; IEL γδ T cells after 6 days of DSS treatment of NFD fed mice
  IL-17A production by γδ T cells: upregulation
IEL γδ (gd) T cells; experimental depletion of γδ T cells, NFD fed mice, DSS
  efficacy of the peptide after depletion of γδ T cells: notable, albeit not exhaustive, diminishment
